Reference: publication PMC6449406, “Classification of the human phox homology (PX) domains based on their phosphoinositide binding specificities” (Nature Communications, 2019)

Assays:
Assay in all cases: liposome pelleting
Type in all cases: binding
Details in all cases: 10 mol% lipid in POPC/POPE liposomes, 20 µM protein, pH 7.2, 125 mM NaCl
SNX7 = target: T1, SNX7 (Homo sapiens, UniProt Q9UNH6)
T1 construct: PX domain only, N-terminal GST removed by thrombin, E. coli
T1 sequence (Q9UNH6 30-151 limits assumed): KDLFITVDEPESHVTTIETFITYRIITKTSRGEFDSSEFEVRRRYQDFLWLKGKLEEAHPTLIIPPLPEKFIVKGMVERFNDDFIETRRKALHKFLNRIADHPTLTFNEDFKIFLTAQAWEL

SNX17 = target: T2, SNX17 (Homo sapiens, UniProt Q15036)
T2 construct: PX domain only, N-terminal GST removed by thrombin, E. coli
T2 sequence (Q15036 1-109 limits assumed): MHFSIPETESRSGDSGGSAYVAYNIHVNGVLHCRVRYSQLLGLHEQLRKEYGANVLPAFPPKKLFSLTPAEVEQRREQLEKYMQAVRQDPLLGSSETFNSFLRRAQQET

SNX27 = target: T3, SNX27 (Homo sapiens, UniProt Q96L92)
T3 construct: PX domain only, N-terminal GST removed by thrombin, E. coli

p40phox = target: T4, p40phox (Homo sapiens, UniProt Q15080)
T4 construct: gene NCF4; PX domain only, N-terminal GST removed by thrombin, E. coli
T4 sequence (Q15080 19-140 limits assumed): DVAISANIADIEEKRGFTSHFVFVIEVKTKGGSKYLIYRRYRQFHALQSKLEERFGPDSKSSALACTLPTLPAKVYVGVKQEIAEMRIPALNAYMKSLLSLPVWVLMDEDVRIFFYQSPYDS

SNX19 = target: T5, SNX19 (Homo sapiens, UniProt Q92543)
T5 construct: a GST-tagged form was also made), E. coli
T5 sequence (Q92543 533-663 limits assumed): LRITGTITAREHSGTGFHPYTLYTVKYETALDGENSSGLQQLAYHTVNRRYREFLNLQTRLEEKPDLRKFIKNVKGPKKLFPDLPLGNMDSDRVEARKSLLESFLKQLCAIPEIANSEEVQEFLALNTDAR

SNX16 = target: T6, SNX16 (Homo sapiens, UniProt P57768)
T6 construct: PX domain only, N-terminal GST removed by thrombin, E. coli
T6 sequence (P57768 105-218 limits assumed): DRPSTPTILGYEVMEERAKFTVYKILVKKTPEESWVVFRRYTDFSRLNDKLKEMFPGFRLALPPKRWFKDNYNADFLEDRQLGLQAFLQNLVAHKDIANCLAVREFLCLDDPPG

SNX3 = target: T7, SNX3 (Homo sapiens, UniProt O60493)
T7 construct: PX domain only, N-terminal GST removed by thrombin, E. coli
T7 sequence (O60493 27-151 limits assumed): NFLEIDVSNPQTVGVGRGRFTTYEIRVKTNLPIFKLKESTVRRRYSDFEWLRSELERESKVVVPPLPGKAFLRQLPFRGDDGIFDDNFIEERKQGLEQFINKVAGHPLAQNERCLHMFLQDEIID

PXK = target: T8, PXK (Homo sapiens, UniProt Q7Z7A4)
T8 construct: PX domain only, N-terminal GST removed by thrombin, E. coli
T8 sequence (Q7Z7A4 14-126 limits assumed): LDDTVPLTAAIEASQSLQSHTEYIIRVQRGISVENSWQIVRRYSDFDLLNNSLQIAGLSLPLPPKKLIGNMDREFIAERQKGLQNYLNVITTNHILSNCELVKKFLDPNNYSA

## CCCCCCCC(=O)OC[C@H](COP(=O)(O)O[C@@H]1[C@H](O)[C@H](OP(=O)(O)O)[C@@H](O)[C@H](O)[C@H]1O)OC(=O)CCCCCCC [PtdIns3P, 1,2-dioctanoyl-sn-glycero-3-(phosphoinositol-3-phosphate)]
SNX7
  liposome pelleting: exclusive interaction with liposomes containing PtdIns3P (SNX3, SNX7
SNX17
  liposome pelleting: exclusive interaction with liposomes containing PtdIns3P (SNX3, SNX7, SNX19, SNX17
SNX27
  liposome pelleting: exclusive interaction with liposomes containing PtdIns3P (SNX3, SNX7, SNX19, SNX17, SNX27
p40phox
  liposome pelleting: (SNX3, SNX7, SNX19, SNX17, SNX27, p40phox, PXK, and SNX16)
SNX19
  liposome pelleting: exclusive interaction with liposomes containing PtdIns3P (SNX3, SNX7, SNX19
SNX16
  liposome pelleting: (SNX3, SNX7, SNX19, SNX17, SNX27, p40phox, PXK, and SNX16)
SNX3
  liposome pelleting: exclusive interaction with liposomes containing PtdIns3P (SNX3
PXK
  liposome pelleting: (SNX3, SNX7, SNX19, SNX17, SNX27, p40phox, PXK, and SNX16)
